# According to patent US20190151312A1, “HEPARAN SULFATE BIOSYNTHESIS INHIBITORS FOR THE TREATMENT OF DISEASES” (BioMarin Pharmaceutical Inc., priority 2014, published 2019):
# Tested on: GM01896 cells (MPS II dermal fibroblasts)
# Assay: Assay 1: MPS cellular assay, MPS II (heparan sulfate disaccharide biomarkers by LC-MS)
# Assay type: cell-based, human
# Conditions: Assay 1 for MPS II, heparan sulfate disaccharide biomarkers (I2a4, I2a6, I2S0 and/or I2S6), read-out: IC50 Range
# Method in brief: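 Heparan sulfate disaccharide biomarkers quantified by LC-MS after heparinase I/II/III digestion and isotopic aniline labelling, using GM01896 MPS II fibroblasts exposed to compound (at or below 30 μM, 4-21 days). Values given as IC50 by curve fitting; cell viability checked with alamar blue or ATP.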
row,Structure (SMILES),IC50
1,Cn1nc2ccc(Nc3cc(-c4ccc5cnn(C)c5c4)nc(N4CCOCC4)n3)cc2n1 [[6-(1-methyl(1H-indazol-6-yl))-2-morpholin-4-ylpyrimidin-4-yl](2-methyl(2-hydrobenzotriazol-5-yl))amine],1000 to 5000 nM

# Same assay, conditions: Homo sapiens, Fibroblast, Assay 1 for MPS II, heparan sulfate disaccharide biomarkers (I2a4, I2a6, I2S0 and/or I2S6), read-out: IC50 Range
row,Structure (SMILES),IC50
1,"Cn1ncc2ccc(-c3cc(Nc4ccc(-c5nnc[nH]5)cc4)nc(N4CCOCC4)n3)cc21 [(4-(4H-1,2,4-triazol-3-yl)phenyl)[6-(1-methyl(1H-indazol-6-yl))-2-morpholin-4-ylpyrimidin-4-yl]amine]",< 500 nM
2,Cn1cnc2ccc(-c3cc(Nc4ccc(C#N)cc4)nc(N4CCOCC4)n3)cc21 [4-{[6-(1-methylbenzimidazol-6-yl)-2-morpholin-4-ylpyrimidin-4-yl]amino}benzenecarbonitrile],1000 to 5000 nM
3,CN1CCN(CCn2ncc3ccc(-c4cc(Nc5ccc(Cl)cc5)nc(N5CCOCC5)n4)cc32)CC1 [(4-chlorophenyl)(6-{1-[2-(4-methylpiperazinyl)ethyl](1H-indazol-6-yl)}-2-morpholin-4-ylpyrimidin-4-yl)amine],500 to 1000 nM
4,"Cn1cnnc1-c1ccc(Nc2cc(-c3ccc4cnn(C)c4c3)nc(N3CCOCC3)n2)cc1 [[4-(4-methyl(1,2,4-triazol-3-yl))phenyl][6-(1-methyl(1H-indazol-6-yl))-2-morpholin-4-ylpyrimidin-4-yl]amine]",1000 to 5000 nM
5,Cn1ncc2ccc(-c3cc(Nc4ccc5c(c4)nnn5C)nc(N4CCOCC4)n3)cc21 [[6-(1-methyl(1H-indazol-6-yl))-2-morpholin-4-ylpyrimidin-4-yl](1-methylbenzotriazol-5-yl)amine],1000 to 5000 nM
6,COCCn1ncc2ccc(-c3cc(Nc4ccc(C(=O)OC)cc4)nc(N4CCOCC4)n3)cc21 [methyl 4-({6-[1-(2-methoxyethyl)(1H-indazol-6-yl)]-2-morpholin-4-ylpyrimidin-4-yl}amino)benzoate],500 to 1000 nM
7,CN1NC=C2CC=C(c3cc(Nc4ccc(C(N)=O)cc4)nc(N4CCOCC4)n3)C=C21 [4-((6-(1-methyl-4H-indazol-6-yl)-2-morpholinopyrimidin-4-yl)amino)benzamide],500 to 1000 nM
8,Cc1nc2ccc(-c3cc(Nc4ccc5ccn(C)c5c4)nc(N4CCOCC4)n3)cc2n1CC1CC1 [{6-[1-(cyclopropylmethyl)-2-methylbenzimidazol-6-yl]-2-morpholin-4-ylpyrimidin-4-yl}(1-methylindol-6-yl)amine],< 500 nM
9,CN(C)CCNc1nn(C)c2cc(-c3cc(Nc4ccc(Cl)cc4)nc(N4CCOCC4)n3)ccc12 [{2-[(6-{6-[(4-chlorophenyl)amino]-2-morpholin-4-ylpyrimidin-4-yl}-1-methyl(1H-indazol-3-yl))amino]ethyl}dimethylamine],500 to 1000 nM
10,Cn1nc(CCN2CCNCC2)c2ccc(-c3cc(Nc4ccc(Cl)cc4)nc(N4CCOCC4)n3)cc21 [(4-chlorophenyl){6-[1-methyl-3-(2-piperazinylethyl)(1H-indazol-6-yl)]-2-morpholin-4-ylpyrimidin-4-yl}amine],1000 to 5000 nM
11,"Cc1nn(C)c2cc(-c3cc(Nc4ccc(-c5nnc(C(F)(F)F)[nH]5)cc4)nc(N4CCOCC4)n3)ccc12 [[6-(1,3-dimethyl(1H-indazol-6-yl))-2-morpholin-4-ylpyrimidin-4-yl]{4-[5-(trifluoromethyl)(4H-1,2,4-triazol-3-yl)]phenyl}amine]",1000 to 5000 nM
12,Cn1ncc2ccc(-c3cc(Nc4ccc(-c5c[nH]cn5)cc4)nc(N4CCOCC4)n3)cc21 [(4-imidazol-4-ylphenyl)[6-(1-methyl(1H-indazol-6-yl))-2-morpholin-4-ylpyrimidin-4-yl]amine],500 to 1000 nM
13,"Cc1nn(C)c2cc(-c3cc(Nc4ccc(-c5ccc[nH]5)cc4)nc(N4CCOCC4)n3)ccc12 [[6-(1,3-dimethyl(1H-indazol-6-yl))-2-morpholin-4-ylpyrimidin-4-yl](4-pyrrol-2-ylphenyl)amine]",< 500 nM
14,CNC(=O)c1ccc(Nc2cc(-c3ccc4c(c3)ncn4CCN3CCOCC3)nc(N3CCOCC3)n2)cc1 [N-methyl[4-({2-morpholin-4-yl-6-[1-(2-morpholin-4-ylethyl)benzimidazol-5-yl]pyrimidin-4-yl}amino)phenyl]carboxamide],500 to 1000 nM
15,Clc1ccc(Nc2cc(-c3ccc4c(Cl)nn(CCCN5CCOCC5)c4c3)nc(N3CCOCC3)n2)cc1 [{6-[3-chloro-1-(3-morpholin-4-ylpropyl)(1H-indazol-6-yl)]-2-morpholin-4-ylpyrimidin-4-yl}(4-chlorophenyl)amine],1000 to 5000 nM
16,CN(C)c1ccc(Nc2cc(-c3ccc4ncn(C)c4c3)nc(N3CCOCC3)n2)cc1 [dimethyl(4-{[6-(1-methylbenzimidazol-6-yl)-2-morpholin-4-ylpyrimidin-4-yl]amino}phenyl)amine],1000 to 5000 nM
17,"Cc1nn(C)c2cc(-c3cc(Nc4ccc5[nH]ccc5c4)nc(N4CCOCC4)n3)ccc12 [[6-(1,3-dimethyl(1H-indazol-6-yl))-2-morpholin-4-ylpyrimidin-4-yl]indol-5-ylamine]",1000 to 5000 nM
18,Clc1ccc(Nc2cc(-c3ccc4cnn(CCN5CCOCC5)c4c3)nc(N3CCOCC3)n2)cc1 [(4-chlorophenyl){2-morpholin-4-yl-6-[1-(2-morpholin-4-ylethyl)(1H-indazol-6-yl)]pyrimidin-4-yl}amine],500 to 1000 nM

row,Structure (SMILES),IC50
1,Cc1nn(CCN2CCCC2)c2cc(-c3cc(Nc4ccc(Cl)cc4)nc(N4CCOCC4)n3)ccc12 [(4-chlorophenyl){6-[3-methyl-1-(2-pyrrolidinylethyl)(1H-indazol-6-yl)]-2-morpholin-4-ylpyrimidin-4-yl}amine],1000 to 5000 nM
2,"Cc1nn(C)c2cc(-c3cc(Nc4ccc5cn(C)nc5c4)nc(N4CCOCC4)n3)ccc12 [[6-(1,3-dimethyl(1H-indazol-6-yl))-2-morpholin-4-ylpyrimidin-4-yl](2-methyl(2H-indazol-6-yl))amine]",1000 to 5000 nM
3,"Cc1nnc(-c2ccc(Nc3cc(-c4cnc5cnn(C)c5c4)nc(N4CCOCC4)n3)cc2)[nH]1 [[4-(5-methyl(4H-1,2,4-triazol-3-yl))phenyl][6-(1-methylpyrazolo[4,5-b]pyridin-6-yl)-2-morpholin-4-ylpyrimidin-4-yl]amine]",< 500 nM
4,Clc1ccc(Nc2cc(-c3ccc4nc[nH]c4c3)nc(N3CCOCC3)n2)cc1 [(6-benzimidazol-6-yl-2-morpholin-4-ylpyrimidin-4-yl)(4-chlorophenyl)amine],500 to 1000 nM
5,Cn1nc(CCN2CCOCC2)c2ccc(-c3cc(Nc4ccc(-c5ccn[nH]5)cc4)nc(N4CCOCC4)n3)cc21 [{6-[1-methyl-3-(2-morpholin-4-ylethyl)(1H-indazol-6-yl)]-2-morpholin-4-ylpyrimidin-4-yl}(4-pyrazol-5-ylphenyl)amine],< 500 nM
6,Clc1ccc(Nc2cc(-c3ccc4ncn(C5CC5)c4c3)nc(N3CCOCC3)n2)cc1 [(4-chlorophenyl)[6-(1-cyclopropylbenzimidazol-6-yl)-2-morpholin-4-ylpyrimidin-4-yl]amine],500 to 1000 nM
7,"Cc1nn(C)c2cc(-c3cc(Nc4ccc(-c5ccn(C)n5)cc4)nc(N4CCOCC4)n3)ccc12 [[6-(1,3-dimethyl(1H-indazol-6-yl))-2-morpholin-4-ylpyrimidin-4-yl][4-(1-methylpyrazol-3-yl)phenyl]amine]",1000 to 5000 nM
8,CNC(=O)c1ccc(Nc2cc(-c3ccc4c(c3)ncn4CC3CC3)nc(N3CCOCC3)n2)cc1 [[4-({6-[1-(cyclopropylmethyl)benzimidazol-5-yl]-2-morpholin-4-ylpyrimidin-4-yl}amino)phenyl]-N-methylcarboxamide],< 500 nM
9,Cn1ncc2ccc(-c3cc(Nc4ccc(-c5ncc(C(F)(F)F)[nH]5)cc4)nc(N4CCOCC4)n3)cc21 [[6-(1-methyl(1H-indazol-6-yl))-2-morpholin-4-ylpyrimidin-4-yl]{4-[5-(trifluoromethyl)imidazol-2-yl]phenyl}amine],500 to 1000 nM
10,Clc1ccc(Nc2cc(-c3ccc4ncn(CCN5CCOCC5)c4c3)nc(N3CCOCC3)n2)cc1 [(4-chlorophenyl){2-morpholin-4-yl-6-[1-(2-morpholin-4-ylethyl)benzimidazol-6-yl]pyrimidin-4-yl}amine],< 500 nM
11,Clc1ccc(Nc2cc(-c3ccc4ncn(C5CCC5)c4c3)nc(N3CCOCC3)n2)cc1 [(4-chlorophenyl)[6-(1-cyclobutylbenzimidazol-6-yl)-2-morpholin-4-ylpyrimidin-4-yl]amine],500 to 1000 nM
12,CNS(=O)(=O)c1ccc(Nc2cc(-c3ccc4cnn(C)c4c3)nc(N3CCOCC3)n2)cc1 [methyl[(4-{[6-(1-methyl(1H-indazol-6-yl))-2-morpholin-4-ylpyrimidin-4-yl]amino}phenyl)sulfonyl]amine],1000 to 5000 nM
13,Cn1cnc2ccc(-c3cc(Nc4ccc(C(=O)NC5CC5)cc4)nc(N4CCOCC4)n3)cc21 [N-cyclopropyl(4-{[6-(1-methylbenzimidazol-6-yl)-2-morpholin-4-ylpyrimidin-4-yl]amino}phenyl)carboxamide],1000 to 5000 nM
14,Cn1ncc2ccc(-c3cc(Nc4ccc(C#N)cc4)nc(N4CCOCC4)n3)cc21 [4-{[6-(1-methyl(1H-indazol-6-yl))-2-morpholin-4-ylpyrimidin-4-yl]amino}benzenecarbonitrile],1000 to 5000 nM
15,CNC(=O)c1ccc(Nc2cc(-c3ccc4c(c3)ncn4C)nc(N3CCOCC3)n2)cc1 [N-methyl(4-{[6-(1-methylbenzimidazol-5-yl)-2-morpholin-4-ylpyrimidin-4-yl]amino}phenyl)carboxamide],< 500 nM
16,CNC(=O)c1ccc(Nc2cc(-c3ccc4c(cnn4CCN4CCOCC4)c3)nc(N3CCOCC3)n2)cc1 [N-methyl[4-({2-morpholin-4-yl-6-[1-(2-morpholin-4-ylethyl)(1H-indazol-5-yl)]pyrimidin-4-yl}amino)phenyl]carboxamide],500 to 1000 nM
17,CN(C)CCc1nn(C)c2cc(-c3cc(Nc4ccc(Cl)cc4)nc(N4CCOCC4)n3)ccc12 [[2-(6-{6-[(4-chlorophenyl)amino]-2-morpholin-4-ylpyrimidin-4-yl}-1-methyl(1H-indazol-3-yl))ethyl]dimethylamine],500 to 1000 nM
